Data as given in patent EP3936128A1, “ACTIVE SUBSTANCE AGAINST PROTOZOA” (Christian-Albrechts-Universität zu Kiel, priority 2020, dated 2022).
Read-outs that look alike come from different tables or passages of the source.

Assays:
Assay type in all cases: cell-based
PfFNT wildtype = target: T1, PfFNT wildtype (Plasmodium falciparum, UniProt O77389); experiment: Inhibition of radiolabelled L-lactate uptake in yeast expressing wild-type PfFNT
T1 construct: expressed in transfected cells; host or cells: Saccharomyces cerevisiae W303-1A jen1Δ ady2Δ, plasmid pDR196
Description: (§1) Plasmodium falciparum were kept in culture in 5% 0+ erythrocytes in RPMI 1640 medium containing 0,5% Albumax at 37 °C. […] Medium containing test compounds was exchanged every 24 h. In order to test for the propensity of parasites to develop resistance to a given substance, 3D7 parasites were grown in the presence of 3 x IC50 of a test for 30 days. Thereafter the drug was removed by exchanging the medium, and the day recorded when parasites resurfaced in the culture. As an alternative to Plasmodium falciparum, the FNT of the wild-type plasmodium (available under accession number PF3D7_0316600 in the data bank PlasmoDB) and the FNT (G107S mutant FNT) of the resistant plasmodia were expressed in the yeast Saccharomyces cerevisiae W303-1A jen1Δ ady2Δ from plasmid pDR196 (PMA promoter). In the yeast, the endogenous genes for the monocarboxylate transporter Jen1p (sequence accession No. CAA82062 NCBI) and Ady2p (sequence accession No. KZV12856) were deleted (obtained from M. Casal, Universidade do Minho, Portugal).
(§2) This yeast was grown in SD medium with addition of adenine, histidine, leucine, tryptophan and 2 % (wt/v) glucose at 30 °C up to an OD600 of 0.8 to 1.0, harvested by centrifugation and washed once with water and centrifuged down again, and suspended in 50 mM HEPES/TRIS (pH 6.8) and adjusted to an OD600 of 50± 10% and stored on ice. For contacting with one of the compounds a compound of one step of a dilution series in DMSO was provided in a reaction vessel and onto this 80 µL of the yeast suspension were pipetted. After an incubation on ice for 15 to 20 min 20 µL 5 mM Na-L-lactate plus 0.04 µCi radioactively labelled L-(1-^14C) lactate was added. The lactate concentration obtained was 1 mM. After an incubation of 30 s the uptake of lactate was stopped by a rapid dilution by means of adding of 1 ml ice cold water. From the yeast suspension diluted this way the yeast cells were brought onto a filter membrane by vacuum filtration, washed with 7 ml cold water and transferred with the filter membrane into 3 ml scintillation cocktail. After 24 h of incubation at 18 °C in the scintillation cocktail, in which the cells were lysed, the amount of radioactively labelled lactate was measured by means of a scintillation counter. The total amount of lactate which was taken up by the yeast was calculated from the measured amount of radioactively labelled lactate. As a positive control the yeast was treated equally in parallel testing with DMSO without one of the compounds and was regarded as 100% FNT activity, respectively 0% inhibition. In tests with the compound a lower amount of lactate taken up was found in comparison to the parallel positive control. As a negative control yeast was treated in parallel in which the endogenous genes for the monocarboxylate transporters Jen1p and Ady2p were deleted, but the FNT from plasmodium was not expressed. This negative control was regarded as 0% FNT activity, respectively 100% inhibition.

PfFNT G107S = target: T2, PfFNT G107S (Plasmodium falciparum, UniProt O77389, G107S); experiment: Inhibition of radiolabelled L-lactate uptake in yeast expressing G107S mutant PfFNT
T2 construct: expressed in transfected cells; host or cells: Saccharomyces cerevisiae W303-1A jen1Δ ady2Δ, plasmid pDR196
T2 sequence (O77389 1-309 G107S): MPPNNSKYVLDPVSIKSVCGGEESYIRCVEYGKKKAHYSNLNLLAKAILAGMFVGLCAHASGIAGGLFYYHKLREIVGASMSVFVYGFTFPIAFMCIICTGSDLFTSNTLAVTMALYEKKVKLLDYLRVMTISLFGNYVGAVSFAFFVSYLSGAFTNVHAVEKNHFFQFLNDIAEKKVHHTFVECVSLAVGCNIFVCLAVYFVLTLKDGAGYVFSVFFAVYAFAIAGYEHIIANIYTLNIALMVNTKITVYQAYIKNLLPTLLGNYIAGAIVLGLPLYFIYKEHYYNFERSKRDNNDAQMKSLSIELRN
Description: as §1, §2

FNT of P. vivax (PvFNT) = FNT of P. vivax (PvFNT) (Plasmodium vivax, UniProt A0A1G4GWI6); experiment: Inhibition of the FNT of P. vivax
FNT of P. ovale (PoFNT) = FNT of P. ovale (PoFNT) (Plasmodium ovale, UniProt A0A1D3TGZ2); experiment: Inhibition of the FNT of P. ovale
[1] = target: FNT of P. knowlesi (PkFNT) (Plasmodium knowlesi, UniProt A0A679KXN5); experiment: Inhibition of the FNT of P. knowlesi
[2] = target: FNT of P. malariae (PmFNT) (Plasmodium malariae, UniProt A0A1C3KYI2); experiment: Inhibition of the FNT of P. malariae
[3] = read-out: IC50 for the FNT of P. vivax (PvFNT)
[4] = G107S mutant FNT, 1 mM lactate, pH 6.8, 30 s uptake, read-out: PfFNT G107S IC50

FNT of P. knowlesi (PkFNT), sequence (A0A679KXN5 whole entry): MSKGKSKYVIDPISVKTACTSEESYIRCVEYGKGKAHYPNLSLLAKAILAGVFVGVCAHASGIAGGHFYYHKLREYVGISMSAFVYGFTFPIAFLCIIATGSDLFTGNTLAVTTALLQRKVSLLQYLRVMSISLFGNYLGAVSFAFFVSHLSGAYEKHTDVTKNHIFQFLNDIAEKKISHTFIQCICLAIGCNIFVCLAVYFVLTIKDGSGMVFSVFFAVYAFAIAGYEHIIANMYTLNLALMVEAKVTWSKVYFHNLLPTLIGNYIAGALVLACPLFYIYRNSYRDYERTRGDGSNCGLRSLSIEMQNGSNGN
FNT of P. vivax (PvFNT), sequence (A0A1G4GWI6 whole entry): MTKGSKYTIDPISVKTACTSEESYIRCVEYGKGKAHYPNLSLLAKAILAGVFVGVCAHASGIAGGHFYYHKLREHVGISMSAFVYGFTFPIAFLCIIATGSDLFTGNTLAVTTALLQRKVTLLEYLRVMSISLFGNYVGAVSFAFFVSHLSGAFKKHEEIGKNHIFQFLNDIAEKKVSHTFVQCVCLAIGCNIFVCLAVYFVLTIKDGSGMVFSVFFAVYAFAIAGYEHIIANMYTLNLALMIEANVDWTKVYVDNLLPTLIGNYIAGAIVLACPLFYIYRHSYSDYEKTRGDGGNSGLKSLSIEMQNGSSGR
T1 sequence (O77389 whole entry): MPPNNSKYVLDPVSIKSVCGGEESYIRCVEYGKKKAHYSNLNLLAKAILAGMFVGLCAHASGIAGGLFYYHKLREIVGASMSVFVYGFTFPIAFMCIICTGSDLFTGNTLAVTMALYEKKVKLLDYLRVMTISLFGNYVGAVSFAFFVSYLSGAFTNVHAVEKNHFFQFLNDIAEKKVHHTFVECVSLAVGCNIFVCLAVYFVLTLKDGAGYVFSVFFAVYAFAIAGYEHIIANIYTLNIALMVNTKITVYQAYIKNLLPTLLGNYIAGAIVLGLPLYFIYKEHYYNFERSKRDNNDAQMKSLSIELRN
FNT of P. ovale (PoFNT), sequence (A0A1D3TGZ2 whole entry): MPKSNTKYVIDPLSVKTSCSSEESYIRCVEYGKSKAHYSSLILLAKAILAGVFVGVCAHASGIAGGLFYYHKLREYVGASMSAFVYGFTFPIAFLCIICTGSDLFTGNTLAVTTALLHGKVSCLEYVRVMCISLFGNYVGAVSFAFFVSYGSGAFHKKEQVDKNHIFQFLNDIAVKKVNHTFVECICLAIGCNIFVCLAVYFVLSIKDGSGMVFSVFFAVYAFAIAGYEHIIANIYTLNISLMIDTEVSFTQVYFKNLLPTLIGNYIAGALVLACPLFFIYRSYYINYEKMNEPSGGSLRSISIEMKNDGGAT
FNT of P. malariae (PmFNT), sequence (A0A1C3KYI2 whole entry): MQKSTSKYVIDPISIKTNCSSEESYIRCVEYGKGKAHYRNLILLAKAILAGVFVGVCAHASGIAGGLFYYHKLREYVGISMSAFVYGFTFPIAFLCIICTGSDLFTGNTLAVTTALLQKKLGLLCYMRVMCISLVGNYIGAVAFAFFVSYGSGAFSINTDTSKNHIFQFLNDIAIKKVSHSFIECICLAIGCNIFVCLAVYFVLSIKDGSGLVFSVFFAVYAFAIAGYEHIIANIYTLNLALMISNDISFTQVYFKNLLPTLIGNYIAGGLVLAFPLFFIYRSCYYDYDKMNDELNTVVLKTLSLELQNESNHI

SMILES | IC50 (PfFNT wildtype) | IC50 (PfFNT G107S) | IC50 (PfFNT G107S; [4]) | other results
O=C(C=C(O)C(F)(F)C(F)(F)F)c1ccncc1 [compound [14], 4,4,5,5,5-pentafluoro-3-hydroxy-1-(4-pyridyl)pent-2-en-1-one] | 150 ± 30 nM | 22000 ± 7000 nM | – | –
COc1ccc(C(=O)C=C(O)C(F)(F)C(F)(F)F)cc1 [compound [2], reference compound] | 140 ± 10 nM | – | 2700 ± 200 nM | IC50 (FNT of P. vivax (PvFNT); [3]): 249 ± 80 nM; IC50 (FNT of P. ovale (PoFNT)): ~900 nM; IC50 [1]: 985 ± 80 nM; IC50 [2]: 391 ± 50 nM
COc1ccc(C(=O)C=C(O)C(F)(F)C(F)(F)F)c(O)c1 [compound [1], reference compound] | 170 ± 10 nM | – | 21000 ± 1000 nM | IC50 (FNT of P. vivax (PvFNT); [3]): 69 ± 3 nM; IC50 [1]: 212 ± 70 nM
Cc1ccc(C(=O)C=C(O)C(F)(F)C(F)(F)F)cn1 [compound [18], 4,4,5,5,5-pentafluoro-3-hydroxy-1-(6-methyl-3-pyridyl)pent-2-en-1-one] | 150 ± 10 nM | 1700 ± 300 nM | – | –
O=C(C=C(O)C(F)(F)C(F)(F)F)c1ccccn1 [compound [15], 4,4,5,5,5-pentafluoro-3-hydroxy-1-(2-pyridyl)pent-2-en-1-one] | 150 ± 10 nM | 580 ± 90 nM | – | –
Cn1ccc(C(=O)C=C(O)C(F)(F)C(F)(F)F)c1 [compound [6], reference compound] | 130 ± 10 nM | – | 14000 ± 1000 nM | –
O=C(C=C(O)C(F)(F)C(F)(F)F)c1cccnn1 [compound [12], 4,4,5,5,5-pentafluoro-3-hydroxy-1-pyridazin-3-yl-pent-2-en-1-one] | 860 ± 30 nM | 3800 ± 800 nM | – | –
O=C(C=C(O)C(F)(F)C(F)(F)F)c1cc[nH]c1 [compound [5], reference compound] | 200 ± 10 nM | – | 13000 ± 1000 nM | –
CC(C)(O)CC(=O)C=C(O)C(F)(F)C(F)(F)F [compound [3], reference compound] | 1100 ± 100 nM | – | 490000 ± 20000 nM | –
O=C(C=C(O)C(F)(F)C(F)(F)F)c1ccc[nH]1 [compound [4], reference compound] | 160 ± 10 nM | – | 12000 ± 1000 nM | –
O=C(C=C(O)C(F)(F)C(F)(F)F)c1cnc2ccccc2c1 [compound [17], 4,4,5,5,5-pentafluoro-3-hydroxy-1-(3-quinolyl)pent-2-en-1-one] | 240 ± 40 nM | – | – | IC50 (PfFNT G107S; read-out: PfFNT G107S IC50, G107S mutant FNT, 1 mM lactate, pH 6.8, 30 s uptake): 96000 ± 800 nM
O=C(C=C(O)C(F)(F)C(F)(F)F)c1ccc(Cl)cn1 [compound [19], 1-(5-chloropyridin-2-yl)-4,4,5,5,5-pentafluoro-3-hydroxypent-2-en-1-one] | 230 ± 70 nM | 510 ± 90 nM | – | –
O=C(C=C(O)C(F)(F)C(F)(F)F)c1cccnc1 [compound [16], 4,4,5,5,5-pentafluoro-3-hydroxy-1-(3-pyridyl)pent-2-en-1-one] | 110 ± 10 nM | 630 ± 50 nM | – | IC50 (FNT of P. vivax (PvFNT)): 229 ± 10 nM; IC50 (FNT of P. ovale (PoFNT)): 213 ± 30 nM; IC50 [1]: 874 ± 60 nM; IC50 [2]: 214 ± 20 nM
O=C(C=C(O)C(F)(F)C(F)(F)F)c1cc2ccccc2o1 [compound [7], reference compound] | 190 ± 10 nM | – | 17000 ± 2000 nM | –
COc1ccc(C(=O)C=C(O)C(F)(F)C(F)(F)F)cn1 [compound [20], 4,4,5,5,5-pentafluoro-3-hydroxy-1-(6-methoxy-3-pyridyl)pent-2-en-1-one] | 110 ± 10 nM | 260 ± 50 nM | – | –
CCCCC(F)(F)C(O)=CC(=O)c1cccnc1 [compound [22], 4,4-difluoro-3-hydroxy-1-(3-pyridyl)oct-2-en-1-one] | 360 ± 50 nM | – | 24000 ± 6000 nM | –
O=C(C=C(O)C(F)(F)C(F)(F)F)c1cnccn1 [compound [13], 4,4,5,5,5-pentafluoro-3-hydroxy-1-pyrazin-2-yl-pent-2-en-1-one] | 460 ± 30 nM | 1200 ± 300 nM | – | –
O=C(C=C(O)C(F)(F)CO)c1cccnc1 [compound [21], 4,4-difluoro-3,5-dihydroxy-1-(3-pyridyl)pent-2-en-1-one] | 5500 nM | – | – | –
